Columns and labels:
M.tb [1] = test: CFU assay, M.tb-infected murine BMDMs; assay type: cell-based, Mycobacterium tuberculosis; details: 30 μM pan inhibitor, 4 days of treatment, MOI 1
M.tb [2] = test: CFU assay, M.tb-infected murine lung macrophages; assay type: cell-based, Mycobacterium tuberculosis; details: 30 μM pan inhibitor, 2 days of treatment, MOI 1
M.tb [3] = assay type: in vivo, BALB/c mice; details: isoniazid positive control, vs placebo
M.tb [4] = test: CFU assay, M.tb-infected human in vitro TB granulomas; assay type: cell-based, Mycobacterium tuberculosis; details: 30 μM sabutoclax, 7 days
M.tb-lux = assay type: cell-based, Mycobacterium tuberculosis

CC(C)c1ccccc1Cc1cc(C(=O)Nc2ccc(S(=O)(=O)c3ccccc3C(C)(C)C)cc2)c(O)c(O)c1O [TW37]
M.tb CFUs normalized to DMSO control in BMDMs (M.tb [1]): reduction in the number of M.tb CFUs | number of M.tb CFUs in lung macrophages (M.tb [2]): reduction in the number of M.tb CFUs

NNC(=O)c1ccncc1 [isoniazid]
M.tb growth in murine lungs (CFU) (M.tb [3]): significantly reduced M.tb growth in murine lungs | M.tb growth in murine spleen (CFU) (M.tb [3]): significantly reduced M.tb growth | acid fast stained M.tb in the mouse lung (M.tb [3]): reduction in bacteria | lung inflammation (hematoxylin and eosin stain) (M.tb [3]): reduced inflammation

Cc1cc2c(C(=O)NC[C@H](C)c3ccccc3)c(O)c(O)cc2c(O)c1-c1c(C)cc2c(C(=O)NC[C@H](C)c3ccccc3)c(O)c(O)cc2c1O [sabutoclax]
M.tb CFUs normalized to DMSO control in BMDMs (M.tb [1]): reduction in the number of M.tb CFUs | number of M.tb CFUs in lung macrophages (M.tb [2]): reduction in the number of M.tb CFUs | M.tb growth in human granulomas (CFU) (M.tb [4]): significant reduction in M.tb growth

Cc1c(-c2c(-c3ccc(F)o3)sc3ncnc(O[C@H](Cc4ccccc4OCc4ccnn4CC(F)(F)F)C(=O)O)c23)ccc(OCCN2CCN(C)CC2)c1Cl [S63845]
M.tb growth in human MDMs (luciferase) (M.tb-lux): reduced M.tb growth in donor 1 after 4 days, but to a limited extent relative to the pan inhibitor Sabutoclax
